Data: patent US20240382463A1, “Composition Comprising HDAC Inhibitor and Immune Checkpoin Inhibitor and Methods For Using the Same” (Avstera Therapeutics Corp., priority 2023, published 2024)
Read-outs that look alike come from different tables or passages of the source.

Key:
HDAC6 = molecular target: T1, HDAC6 (Homo sapiens, UniProt Q9UBN7); conditions: cited from earlier work
T1 sequence (Q9UBN7 1-1215): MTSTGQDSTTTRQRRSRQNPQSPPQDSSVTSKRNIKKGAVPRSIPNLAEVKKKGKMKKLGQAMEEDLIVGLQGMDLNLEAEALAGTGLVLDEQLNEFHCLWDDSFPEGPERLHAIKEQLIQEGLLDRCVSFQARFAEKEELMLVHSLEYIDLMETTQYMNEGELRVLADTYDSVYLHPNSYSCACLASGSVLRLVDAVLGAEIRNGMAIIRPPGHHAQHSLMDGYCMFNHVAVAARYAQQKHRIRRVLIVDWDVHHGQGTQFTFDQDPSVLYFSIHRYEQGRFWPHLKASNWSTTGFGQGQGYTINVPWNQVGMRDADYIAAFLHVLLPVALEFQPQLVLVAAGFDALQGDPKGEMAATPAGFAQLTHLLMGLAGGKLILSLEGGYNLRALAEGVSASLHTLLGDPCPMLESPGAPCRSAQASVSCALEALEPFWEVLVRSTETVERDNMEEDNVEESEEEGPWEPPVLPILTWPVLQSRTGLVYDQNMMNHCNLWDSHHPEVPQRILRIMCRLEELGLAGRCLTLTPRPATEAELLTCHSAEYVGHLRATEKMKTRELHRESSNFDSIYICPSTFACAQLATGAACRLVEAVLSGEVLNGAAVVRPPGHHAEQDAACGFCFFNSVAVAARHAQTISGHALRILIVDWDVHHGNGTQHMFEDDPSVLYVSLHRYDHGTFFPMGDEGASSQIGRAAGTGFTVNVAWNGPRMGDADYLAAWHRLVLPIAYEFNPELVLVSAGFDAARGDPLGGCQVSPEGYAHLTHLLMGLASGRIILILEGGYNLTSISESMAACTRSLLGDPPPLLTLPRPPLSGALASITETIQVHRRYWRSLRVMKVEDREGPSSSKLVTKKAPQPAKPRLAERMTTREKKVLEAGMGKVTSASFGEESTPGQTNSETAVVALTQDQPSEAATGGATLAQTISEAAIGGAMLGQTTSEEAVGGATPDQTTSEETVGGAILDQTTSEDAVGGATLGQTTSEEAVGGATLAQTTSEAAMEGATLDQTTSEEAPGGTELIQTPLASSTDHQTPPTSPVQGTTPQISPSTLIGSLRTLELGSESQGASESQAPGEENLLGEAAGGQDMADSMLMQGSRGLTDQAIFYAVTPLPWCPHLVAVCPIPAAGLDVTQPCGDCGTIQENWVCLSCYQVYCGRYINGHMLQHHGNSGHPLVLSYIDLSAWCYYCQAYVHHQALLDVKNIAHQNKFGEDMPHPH

[1] = tested on: S. typhimurium (TA98 and TA1537); conditions: cited from earlier work
melanoma tumor models = conditions: potentiates anti-PD1 therapy; tumors are not completely eliminated; cited from earlier work
[2] = tested on: myeloid and lymphoid lymphoma cell lines; assay: c-Myc acetylation and levels in lymphoma cell lines, Western blot; type: cell-based, human
Description: (§1) Immunoblot-blot, FACs, and gPCR: For western-blot analysis cell monolayers were washed in PBS and lyzed with complete RIPA buffer containing protease, phosphatases and the HDAC inhibitor Panabinostat (10 nM). Cells were sonicated for 12 cycles at high intensity and the cell lysates were centrifuged at 12,000 rpm for 10 minutes at 4° C. to remove the cell debris. Protein quantitation on the supernatants was performed using BCA assay. Protein samples were prepared at 1 ug/uL concentration with 6× Lamelli buffer and incubated for 5 minutes at 90° C. Precast gels containing 20 μg of protein/sample were run and the gels were transferred to a PVDF membrane and stained with specific antibodies. The antibodies used for western-blot are anti-α-tubulin (mouse DM1A, Cell Signaling Tech), anti-acetyl-α-tubulin (rabbit K40, Cell Signaling Tech), anti-iNOS (rabbit polyclonal, Invitrogen), anti-Arginasel (rabbit D4E3M, Cell Signaling Tech). Anti-c-Myc (rabbit D84C12, cell Signaling Tech), anti-acetylated-c-Myc (Rabbit polyclonal Acetyl-Lys148-c-Myc, Sigma-Aldrich), anti-Stat6 (Rabbit D3H4, Cell Signaling Tech), anti-Phospho-Stat6 (Polyclonal Rabbit, Cell Signaling Tech), anti-Stat3 (Rabbit 79D7, Cell Signaling Tech), anti-Phospho-Stat3-727 (Rabbit D8C2Z, Cell Signaling Tech), anti-phospho-Stat3-705 (Rabbit D3A7, Cell Signaling Tech). […]

[3] = tested on: THP1 cells differentiated to macrophages; assay: THP1 macrophages, M2 polarization signalling, Western blot; type: cell-based, human
Description: as §1

[4] = GLP safety and toxicology studies; conditions: rats and dogs
[5] = tested on: BMA31A7 murine macrophages; assay: M2 polarization of BMA31A7 macrophages, Western blot
Description: (§2) Two different cell lines were used as they are better models for polarization towards M1 and M2, respectively.

CT26 colon cancer tumors = assay: CT26 colon cancer model, in vivo tumor growth; design: species or system Balb/c mice
Description: For the CT26 colon cancer model animal studies were performed by Adgyl Lifesciences. Mice were implanted with 0.5×10^6 CT26 cells in the right flanks of 7-8 week-old female Balb/c mice. […] Tumor volume and body weight were monitored twice weekly. Tumor dissection and single-cell suspension: Tumor single-cell suspensions were obtained by mincing the tumor tissue with scalps in petri dishes with complete media, followed by incubation of the minced tumors in a digestion solution (collagenase I, collagenase IV, hyaluronidase V, and DNase I) at 37° C. with rotation for 30-45 min. The digested solution was passed by a cell strainer to remove undigested material, centrifuged, washed and resuspended in complete media.

[6] = tested on: murine bone marrow-derived macrophages (BMDM)
Description: (§3) For qPCR, RNA was isolated by Trizol purification followed by reverse transcription using iScript™ cDNA Synthesis Kit and qPCR using iQ™ SYBR® Green Supermix (Biorad). qPCR were run on real time PCR, CFX Opus 96 (Biorad).

SM1 melanoma tumors = assay: SM1 melanoma model, in vivo tumor growth; design: species or system C57BL/6 mice
Description: In vivo tumor growth: Analysis of tumor growth using the murine SM1 melanoma model were performed in accordance with IACUC guidelines at Georgetown University. Murine melanoma tumors were established by implanting 0.75×10^6 SM1 cells in the right flank area of 6-8 weeks-old female C57BL/6 mice. […] Anti-PD1 or isotype control (BE0146-CUST and BE0089-CUST, Bio X cell) were injected i.p. (15 mg/kg) in 100 ul PBS every other day. Tumor growth was monitored using electronic calipers, the length and width of detected tumors were measured every other day and tumor volumes calculated using the formula ½*length*(width)^2. The body weights of animals were recorded once a week using a portable scale to monitor general health.

[7] = Safety pharmacology (CNS, pulmonary, cardiovascular); conditions: in vivo
[8] = tested on: S. typhimurium (TA98 and TA1537); assay: Ames assay (mutagenicity); type: cell-based; conditions: for increase in the number of colonies: with and without S9 mix
[9] = tested on: Raw264.7 murine macrophages; assay: M1 polarization of Raw264.7 macrophages, Western blot
Description: as §2

Hepatocyte stability = type: in vitro ADME; conditions: human, hepatocytes; read-out: Hepatocytes stability (t½)
hERG = hERG (Homo sapiens, UniProt Q12809); assay: hERG test; conditions: up to 30 μM
hERG, sequence (Q12809 whole entry): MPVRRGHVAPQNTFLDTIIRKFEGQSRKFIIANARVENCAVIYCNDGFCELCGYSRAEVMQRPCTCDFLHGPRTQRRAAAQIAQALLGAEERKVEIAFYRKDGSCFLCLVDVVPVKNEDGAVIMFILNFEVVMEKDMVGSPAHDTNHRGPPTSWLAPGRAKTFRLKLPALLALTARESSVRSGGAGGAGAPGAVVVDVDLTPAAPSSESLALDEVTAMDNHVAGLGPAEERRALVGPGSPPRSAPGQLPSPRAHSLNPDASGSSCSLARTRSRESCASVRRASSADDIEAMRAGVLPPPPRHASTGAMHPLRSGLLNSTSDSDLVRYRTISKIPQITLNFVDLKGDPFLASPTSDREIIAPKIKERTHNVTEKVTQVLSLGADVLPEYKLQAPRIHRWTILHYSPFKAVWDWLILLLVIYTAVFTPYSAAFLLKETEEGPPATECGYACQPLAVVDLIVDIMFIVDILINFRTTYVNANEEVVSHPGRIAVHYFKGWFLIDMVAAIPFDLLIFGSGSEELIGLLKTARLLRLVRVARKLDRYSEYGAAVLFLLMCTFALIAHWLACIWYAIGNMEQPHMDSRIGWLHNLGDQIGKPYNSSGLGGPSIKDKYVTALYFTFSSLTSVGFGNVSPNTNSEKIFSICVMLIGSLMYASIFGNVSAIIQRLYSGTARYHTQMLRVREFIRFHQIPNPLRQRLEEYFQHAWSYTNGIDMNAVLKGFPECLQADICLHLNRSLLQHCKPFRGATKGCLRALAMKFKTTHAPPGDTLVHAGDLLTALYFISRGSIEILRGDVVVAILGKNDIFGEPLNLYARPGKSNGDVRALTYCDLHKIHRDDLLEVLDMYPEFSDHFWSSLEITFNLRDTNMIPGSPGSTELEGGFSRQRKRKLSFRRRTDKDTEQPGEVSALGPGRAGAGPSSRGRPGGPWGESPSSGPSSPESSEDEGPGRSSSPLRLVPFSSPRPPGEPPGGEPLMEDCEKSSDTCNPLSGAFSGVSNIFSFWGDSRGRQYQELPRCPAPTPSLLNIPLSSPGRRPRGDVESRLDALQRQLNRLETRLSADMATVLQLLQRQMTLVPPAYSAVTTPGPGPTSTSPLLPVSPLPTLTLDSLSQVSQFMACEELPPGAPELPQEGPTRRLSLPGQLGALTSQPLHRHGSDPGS

[10] = Plasma pharmacokinetics after oral gavage; type: in vivo, C57BL/6 mice; conditions: PEG6000 formulation compared to the CMC formulation
Description: LS-MS: Plasma samples were obtained using EDTA as anticoagulant and run by Adgyl Life Sciences using a fit for purpose LC-MS/MS method. Briefly, plasma samples were run in a triple Quad 6500+LC-MS/MS System using a 50:50 (ACN:Water v/v) working solution diluent. A mobile Phase A: 2 mM Ammonium formate with 0.1% Formic acid, a mobile Phase B: Acetonitrile with 0.1% formic Acid Isocratic mode; Pump A:B: 50:50. Using a Phenomenex Phenyl-Hexyl column of Sum particle size. […] The calibration curve was generated using area ratio of analyte area: area of internal standard vs concentration and was regressed using linear regression equation and weighting of 1/x2.
The plasma pharmacokinetic parameters of SS-208 were determined from concentration time curves obtained following a single IV and oral route of administration in male C57BL/6 mice. Values are expressed as mean and n=3 mice/time point/group.
However, tumors are not completely eliminated. […] For oral gavage, CMC or PEG6000 formulations were used in fed or starved mice.

[11] = tested on: primary human macrophages; assay: Polarization of primary human macrophages (qPCR, RNAseq); type: cell-based
Description: as §3
RNAseq libraries were prepared following the manufacturer's instructions. The feature-barcode matrices generated by the 10× Genomics CellRanger pipeline were analyzed with an SCTransform workflow (Seurat v4.3.0.1) in RStudio. Cells with greater than 10% mitochondrial counts, fewer than 100 genes detected, or with a number of counts greater than the 93rd percentile of counts were removed. Cell type recognition was performed using the reference-based scRNA-seq annotation package, SingleR. The Immunological Genome Project (ImmGen) was used as the reference dataset. The Seurat object was filtered to include the major immune cell populations present.
As a readout of polarization, changes were analyzed in the expression levels of genes associated with the M1 and M2 phenotype in human macrophages.

O=C(CCCCCCNC(=O)c1cnc(N(c2ccccc2)c2ccccc2)nc1)NO [ACY-1215]
specificity over HDAC6 than other HDAC isoforms (HDAC6): ten-fold

O=C(NO)c1ccc(CN2CCCc3cc(Cl)ccc32)cc1 [SW100]
AMES test (in words) [1]: AMES-negative

CCCCN(Cc1ccc(C(=O)NO)cc1)C(=O)Nc1ccccc1 [Nexturastat-A]
antitumoral effect in melanoma tumor models (melanoma tumor models): antitumoral effect

O=C(NCCc1cc(C(=O)NO)no1)c1ccc(Cl)c(Cl)c1 [AVS100, 5-(2-(3,4-dichlorobenzamido)ethyl)-N-hydroxyisoxazole-3-carboxamide]
acetyl-c-Myc [2]: increased | total c-Myc levels [2]: reduced | STAT6 phosphorylation in response to IL-4 [3]: not inhibited | c-Myc levels in M0 and M2 polarized macrophages [3]: reduced | mutagenicity or toxicity in GLP studies [4]: no mutagenicity, toxicity, or adverse effects | acetyl-α-tubulin levels ([5]; BMA31A7, AVS100 10 uM): increased | Arg1 upregulation under M2 polarizing conditions ([5]; IL-4 plus IL-13, AVS100 10 uM): blocked | tumor growth (CT26 colon cancer tumors; AVS100 100 mg/kg daily gavage, anti-PD1 10 mg/kg i.p. every 4 days): significant tumor growth inhibition | responders with tumor volume lower than 300 mm^3 (CT26 colon cancer tumors; CT26 colon cancer): 20% | M1-like TAMs (CT26 colon cancer tumors; treatment alone): significant increase | M2-like TAMs (CT26 colon cancer tumors; treatment alone): significant reduction | Arg1 levels in M2 polarizing conditions ([6]; Western blot): reduced | iNOS levels under M1 polarizing conditions ([6]; Western blot): partial reduction | Il1b levels in M1 cells ([6]; qPCR): increased | M2 markers Arg1, Fizz1, and Tgfb in M2 cells ([6]; qPCR): inhibition | Nos2 levels ([6]; qPCR): did not affect | tumor growth (SM1 melanoma tumors; 100 mg/kg, daily oral gavage, standalone): significantly reduced | tumor growth, standalone therapies (SM1 melanoma tumors; AVS100 daily oral gavage, anti-PD1 i.p.): similarly reduced | intratumoral CD4 T-cells (SM1 melanoma tumors; flow cytometry): reduction | intratumoral CD8 T-cells (SM1 melanoma tumors; flow cytometry): increase | Cluster 0, IFN-TAMs (SM1 melanoma tumors; scRNAseq of CD45+ cells): increased | central memory CD8 T-cells (CD62L+CD44+) (SM1 melanoma tumors; standalone treatment): specific increase | alterations of CNS behavior, pulmonary or cardiovascular function [7]: no alterations | AMES test (in words) [8]: AMES-negative | Ames test (with and without S9) ([8]; TA98, TA1537): negative | increase in the number of colonies ([8]; tester strain TA98, any dose): < 2 fold | increase in the number of colonies ([8]; tester strain TA1537, any dose): < 3 fold | increase of iNOS levels under M1 polarizing conditions ([9]; LPS plus IFNγ, AVS100 10 uM): did not affect | acetyl-α-tubulin levels ([9]; Raw264.7, AVS100 10 uM): increased | half-life (Hepatocyte stability): 2.25 h | inhibition in the hERG assay (hERG): no significant inhibition | area under the curve (AUC) levels [10]: higher | bioavailability [10]: higher | maximum concentrations in blood (Cmax) [10]: higher | genes of the RelA/NFKB transcriptional program inhibited in M1 cells ([11]; RNAseq, Trust pathway analysis): 45 genes | Cox2, Ccl5, and Socs1 induction ([11]; qPCR, M1 (IFN-γ plus LPS)): partially inhibited | M1 markers Cd64, Tnf and Ido induction ([11]; qPCR, M1 (IFN-γ plus LPS)): did not affect | induction of the M2 markers Cd209, Cd200r1, Mrc1, Tgm2, and Il10 ([11]; qPCR, M2 (IL-4)): prevented
